For data set [1], the target named is T1, cytosolic NMT (N-myristoyltransferase) of L1210 cells (Mus musculus, UniProt O70310).
T1 construct: The supernatant is then used as a source of NMT; endogenous in cells; host or cells: L1210 murine leukemia cells, cytosol (105,000 g supernatant)
T1 sequence (O70310 1-496): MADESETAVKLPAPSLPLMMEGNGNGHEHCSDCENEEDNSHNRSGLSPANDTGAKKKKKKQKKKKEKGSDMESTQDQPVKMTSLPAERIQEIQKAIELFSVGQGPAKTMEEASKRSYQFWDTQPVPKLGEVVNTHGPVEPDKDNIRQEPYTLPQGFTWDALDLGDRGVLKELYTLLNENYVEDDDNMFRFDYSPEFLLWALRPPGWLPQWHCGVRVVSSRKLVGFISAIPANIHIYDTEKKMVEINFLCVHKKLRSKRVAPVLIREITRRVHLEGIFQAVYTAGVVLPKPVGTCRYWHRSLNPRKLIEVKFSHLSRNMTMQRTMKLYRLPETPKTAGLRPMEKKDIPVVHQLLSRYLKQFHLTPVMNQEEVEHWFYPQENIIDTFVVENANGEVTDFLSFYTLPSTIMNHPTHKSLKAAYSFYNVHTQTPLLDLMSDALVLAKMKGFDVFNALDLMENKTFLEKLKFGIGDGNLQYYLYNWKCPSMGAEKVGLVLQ
The data set can be described thus: Inhibition of the cytosolic NMT activity of cancerous L1210 cells. In kind it is biochemical, murine. The method, then: Mass-cultured L1210 cells (murine leukemia) are used as a source of […].
They are cultured in RPMI 1640 supplemented with 50 U/ml of penicillin, […] of streptomycin, 2 mM of glutamine, 10 mM HEPES and 10% of fetal calf serum, maintained in a 5% CO2 /95% air atmosphere and at 37° C.
They are harvested and then washed in PBS by centrifuging at low speed. The final cell pellet is resuspended in a 50 mM HEPES buffer, pH 7.4, containing 2 mM EGTA, 1 mM DTT and 1 mM PMSF. The cells are opened by sonication at 4° C. and homogenized by a to and fro movement in a glass/glass Potter. The cell homogenate is then centrifuged at low speed (10,000 rpm, 10 minutes) in order to precipitate the cell debris and the supernatant is subjected to ultracentrifugation at 105,000 g for 1 hour.
The supernatant is then used as a source of NMT. The measurement of activity is carried out according to the method described by Towler and Glazer (PNAS, 1986, 83, 2812) using as substrate peptide either the peptide derived from the NH2 terminal of the pp60src oncogene product: GSSKSKPKDP (DP), or the peptide derived from the NH2 terminal of the gag product, a structural protein of the Maloney murine leucemic virus: GQTVTTPL (T3) at a final concentration of 0.3 mM.

Data set [2] concerns the target T2, microsomal NMT of CEM cells (Homo sapiens, UniProt P30419).
T2 construct: The pellet (microsomes) and the supernatant (cytosol) are recovered independently and then frozen; endogenous in cells; host or cells: CEM immortalized T lymphocytes, microsomal pellet (105,000 g), treated with Triton 770
T2 sequence (P30419 1-496): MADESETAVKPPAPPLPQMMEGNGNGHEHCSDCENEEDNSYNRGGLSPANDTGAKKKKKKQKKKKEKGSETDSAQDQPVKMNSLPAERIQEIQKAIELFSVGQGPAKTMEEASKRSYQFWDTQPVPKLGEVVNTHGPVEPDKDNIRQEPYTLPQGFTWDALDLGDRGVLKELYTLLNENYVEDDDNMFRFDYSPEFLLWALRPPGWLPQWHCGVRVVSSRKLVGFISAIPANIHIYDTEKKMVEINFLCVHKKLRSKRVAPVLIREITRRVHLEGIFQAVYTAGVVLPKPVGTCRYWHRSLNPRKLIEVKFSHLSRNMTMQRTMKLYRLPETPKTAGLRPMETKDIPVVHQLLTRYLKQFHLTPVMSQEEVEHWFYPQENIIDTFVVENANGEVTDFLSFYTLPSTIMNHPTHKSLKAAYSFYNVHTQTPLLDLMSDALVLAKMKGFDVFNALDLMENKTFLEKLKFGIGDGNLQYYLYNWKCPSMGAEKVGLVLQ
The data set can be described thus: Inhibition of the myristoylation of a gag-derived peptide of HIV-1 (subtype BRU), microsomal fraction of CEM cells. The format is biochemical. The note with it: 20-AA p18 peptide of HIV-1 (subtype BRU), 30 minutes at 37° C., read-out: IC50 during incubation with the microsomal fraction. Here is the method:
Immortalized T lymphocytes (CEM) are mass- cultured as described in Example 57, and then harvested by centrifugation and washed in PBS.
These cells are sonicated (3 brief periods of 10 seconds) and then homogenized in a glass/glass Potter.
This homogenate, in which all the cells have been opened (checked under a microscope), is subjected to centrifugation for 1 h 10) at 105,000 g. The pellet (microsomes) and the supernatant (cytosol) are recovered independently and then frozen.
The NMT activity is then measured following the procedure of Towler and Glaser but stopping the reaction with […] of acetonitrile in order to avoid precipitation of the myristoylated peptide. This 20-AA peptide: NH2^[…] COOH, is derived from p18 of the HIV-1 virus (subtype BRU).
These experimentations are carried out using a cytosolic (40 μl) or microsomal (20 μl treated with 4 μl of 10% Triton 770) source of CEM cells in the presence of increasing concentrations of the compounds of the invention (1 to 1,000 μM, final). The samples, incubated for 30 minutes at 37° C. and stopped with 200 μl of acetonitrile, are then analyzed by HPLC and the myristoylation of p18 quantified.

In data set [3] the test system is HL60 cells. Kind of data set: Differentiation of cultured HL60 cells. In kind it is cell-based, human. Here is the method:
Cultured HL60 cells are treated for 6 days with the compounds dissolved in a minimum of methanol at 9 different concentrations. The doses chosen encompass the IC50 determined beforehand using the MTT test (Carmichael et al., Cancer Res., 1986, 47, 936).
The cells are washed (450 μl), resuspended in the same volume of complete medium and incubated for 1 hour at 37° C. in the presence of 7 ug/ml of DNA-specific fluorochrome.
The measurements, which are carried out by means of a laser cytometer, make it possible to estimate the percentage of cells accumulated, and therefore differentiated, in the G0 and G1 phase of the cell cycle.

The nature of data set [4]: Toxicity on CEM cells in the HIV protection test. In kind it is cell-based. The conditions noted are these: human, method of WEISLOW et al., unit printed m, read-out: toxicity (IC50). The source says: The method used is described by WEISLOW et al. (J. Natl. Cancer Inst., 1989, 81, 577).
In data set [5] the test system is HIV-1 virus. Kind of data set: Protective effect on CEM cells against infection by the HIV virus. In kind it is cell-based. The source says: The method used is described by […] et al. (J. Natl. Cancer Inst., 1989, 81, 577).
Setting [6] is: HL60 cells, 6 days, cells accumulated in G0 and G1 phase, laser cytometer.

Where two headings read alike, the source gives them in different places.

The results in this text go back to patent publication US5266576A, “N-myristoyl transferase inhibitors” (Adir et Compagnie, priority 1991, dated 1993).

In the case of `CCCCCCCCCCCCCC(=O)N1Cc2ccccc2C[C@H]1C(=O)O` [Example 1, N-Myristoyl-3-(S)-carboxy-(1,2,3,4)-tetrahydroisoquinoline], the IC50 amounted to 0.18 µM in data set [1] (cytosolic NMT of L1210 cells, substrate peptide DP (pp60src) or T3 (gag), 0.3 mM, read-out: IC50) and 100 µM in data set [2]. For the same compound, the “doses to which the marked differentiating effect can extend” value in data set [3] (setting [6]) is recorded as “below 50 ug/ml”.

In turn, `CCCCCCCCCCCCCC(=O)NC(Cc1ccccc1)P(=O)(O)OCC` (stereo not drawn) [Example 16, ETHYL 1-MYRISTOYLAMINO-2-[…]] gave an IC50 in data set [1] of 2 µM. Moreover, in data set [3] (144 h), the “doses to which the marked differentiating effect can extend” value is “below 50 ug/ml”.

`COCCCCCCCCCCCC(=O)N[C@@H](Cc1ccccc1)C(=O)O` [Example 49, N-(12-METHOXYLAUROYL)-(S)-PHENYLALANINE]: in data set [4], the CC50 was determined as 200 µM. The compound also gave an EC50 in data set [5] (Human immunodeficiency virus 1, CCRF-CEM, HIV infection, method of WEISLOW et al.) of 10 µM. The same compound returned a therapeutic index in data set [5] (toxicity IC50 / protective EC50) of 20. The “doses to which the marked differentiating effect can extend” value in data set [3] (setting [6]) is reported as “below 50 ug/ml”.
